Test results published in patent US20250009756A1 (Acerus Biopharma Inc., priority 2012, published 2025).
Entries after “also recorded” stand apart in the source; their conditions may differ.

Key:
pKa of testosterone = details: deduced from the molecular structure
[1] = Solubility of testosterone in water, solvents, oils and vehicles

## C[C@]12CC[C@H]3[C@@H](CCC4=CC(=O)CC[C@@]43C)[C@@H]1CC[C@@H]2O [Testosterone, 17ß-Hydroxyandrost-4-en-3-one]
pKa of testosterone
  pKa: no pKa value in the range 1-14
[1]; castor oil
  Solubility in oils: up to 4%
[1]; castor oil pure, maximum
  Solubility in castor oil: 3.6%
[1]; castor oil with 4% Labrafil
  Solubility in castor oil: ~3.36%
[1]; corn oil
  Solubility in oils: 0.5%
[1]; cottonseed oil
  Solubility in oils: 0.7%
[1]; isopropylmyristate
  Solubility in oils: 0.8%
[1]; peanut oil
  Solubility in oils: 0.5%
[1]; solvent named in the value
  Solubility (descriptive): freely soluble in methanol and ethanol; also recorded: soluble in acetone and isopropanol; also recorded: insoluble in n-heptane
[1]; soybean oil
  Solubility in oils: 0.6%
[1]; with fumed silica (Aerosil, CabOsil) and 4.0% Labrafil
  Solubility in castor oil: up to 4.5%
